Assay results taken from publication PMC9231138, “Dihydrotanshinone I Enhances Cell Adhesion and Inhibits Cell Migration in Osteosarcoma U−2 OS Cells through CD44 and Chemokine Signaling” (Molecules, 2022).

Experiments:
U−2 OS cells [1] = assay: Length of actin protrusions (Image J); type: cell-based, human; conditions: DS−1 for 24 h
Description: Figure 8 CD44 knockdown reduced cell adhesion by shortening cell protrusions. (A) U−2 OS cells transfected with CD44 siRNA and no siRNA were seeded into a 24-well plate treated with 7.5 μM DS−1 for 24 h, and the expression of CD44 was detected by immunofluorescence. (B) CD44 expression of U−2 OS cells was detected by Western blotting after being treated with siRNA for 0, 24, and 36 h. (C) U−2 OS cells were first transfected with/without CD44 siRNA and then treated with DS−1 for 24 h, and its actin morphologies were detected. The representative magnified actin morphologies are listed in (D). (E) The lengths of protrusions in (C) were analyzed by Image J and are shown in a scatterplot graph. The lengths of 20 protrusions from actin in (C) were calculated. Each value is the average of 20 lengths of protrusions, ** p < 0.01, *** p < 0.005. (F) U−2 OS cells were transfected with CD44 siRNA, then treated with 0 and 7.5 μM DS−1 for 24 h and digested with trypsin at 25 °C; the digestion time was recorded by a microscope, and photos were taken every 30 s. The percentage of digested cells is recorded in (G).
Actin promotes the formation of protrusions around the cells. After CD44 knockdown and DS−1 treatment, the morphology of actin was observed. The average length of protrusions was measured by Image J [59]. […]

U−2 OS cells [2] = assay: Cell cycle distribution by flow cytometry; type: cell-based, human; conditions: 24 h, mean ± SD
Description: The cell cycle is a key regulator of cell survival and the repair signal network. It has direct effects on multiple cell processes, including cell proliferation, DNA repair, apoptosis, and cell migration. Thus, it was further analyzed by flow cytometry. As shown in Table 2 and Figure 5A–E, after treatment with DS−1 at doses of 0, 2.5, 5.0, and 7.5 µM for 24 h, the distribution of the cell cycle was measured and the proportion of the G0/G1 phase was 54.70 ± 2.21%, 61.07 ± 2.04%, 65.20 ± 4.35%, and 65.65 ± 1.83%, respectively. In addition, the proportion of U−2 OS cells at the G0/G1 phase increased with the increase in the DS−1 concentration (Figure 5A–E), implying possible cell cycle arrest at the G0/G1 phase.
Figure 5 DS−1 regulated the cell cycle of U−2 OS cells. (A–D) Cell cycle of U−2 OS cells was retained in the G0/G1 phase. U−2 OS cells were treated with DS−1 at 0, 2.5, 5.0, and 7.5 µM for 24 h, and the cell cycle ratio was measured by flow cytometry; the cell cycle distribution is shown in Table 2. (E) Histogram of cell cycle distribution after U−2 OS cells were treated with DS−1. (F) Heatmap of the expression of genes relating to cell cycle in the transcriptome results. (G–K) In U−2 OS cells treated with DS−1 at concentrations of 0, 2.5, 5.0, and 7.5 μM, RNA was extracted and analyzed by RT-PCR, and the changes in CDK2, cyclin D1, cyclin E1, and p21 mRNA are presented in the histogram. (L) Cyclin D1 and cyclin E1 protein relative expression was analyzed by Western blot. Values are the average of three independent experiments, * p < 0.05, ** p < 0.01, *** p < 0.005. TEXT PRINTED IN THE PICTURE: (A) DS-1: G1(54.88%) (0 μM); S(19.57%) (0 μM); G2(23.84%) (0 μM) | (B) DS-1: G1(60.37%) (2.5 μM); S(18.70%) (2.5 μM); G2(19.44%) (2.5 μM) | (C) DS-1: G1(65.10%) (5.0 μM); S(16.87%) (5.0 μM); G2(16.41%) (5.0 μM) | (D) DS-1: G0G1(65.65%) (7.5 μM); S(14.20%) (7.5 μM); G2M(19.60%) (7.5 μM) DOUBTS OF THE COPYIST ABOUT THIS PICTURE: The label DS-1 is printed only in panel L ("DS-1(μM)"); panels A-D print only the concentration, no substance label / Panel A (0 μM) is the untreated state; its values are given with the 0 μM heading as condition / All gate percentages in panels A-D are printed very small and blurred; 3, 5, 6, 8 and 9 cannot be told apart with certainty / A, G1: 54.88% or 54.89% / 54.68% / A, S: 19.57% or 19.67% / A, G2: 23.84% or 23.64% / B, G1: 60.37% or 60.31% / 80.37% / B, S: 18.70% or 16.70% / B, G2: 19.44% or 18.44% / C, G1: 65.10% or 65.16% / 63.10% / C, S: 16.87% or 16.67% / 18.87% / C, G2: 16.41% or 18.41% / D, G0G1: 65.65% or 65.85% / 66.65% / D, S: 14.20% or 14.26% / D, G2M: 19.60% or 19.80% / 19.66%

Cc1cccc2c3c(ccc12)C1=C(C(=O)C3=O)[C@@H](C)CO1 [DS−1, 15,16-Dihydrotanshinone I]
average length of protrusions (U−2 OS cells [1]; CD44 knockdown group, knockdown without DS−1 0.203 ± 0.056 μm): 0.213 ± 0.061 μm | average length of protrusions (U−2 OS cells [1]; no CD44 siRNA, control 0.307 ± 0.097 μm): 0.403 ± 0.103 μm | proportion of cells in G0/G1 phase (U−2 OS cells [2]; DS−1 2.5 µM): 61.07 ± 2.04% | proportion of cells in G2/M phase (U−2 OS cells [2]; DS−1 2.5 µM): 18.65 ± 3.50 | proportion of cells in S phase (U−2 OS cells [2]; DS−1 2.5 µM): 20.10 ± 2.07 | proportion of cells in G0/G1 phase (U−2 OS cells [2]; DS−1 5.0 µM): 65.20 ± 4.35% | proportion of cells in G2/M phase (U−2 OS cells [2]; DS−1 5.0 µM): 14.92 ± 4.67 | proportion of cells in S phase (U−2 OS cells [2]; DS−1 5.0 µM): 19.55 ± 3.08 | proportion of cells in G0/G1 phase (U−2 OS cells [2]; DS−1 7.5 µM): 65.65 ± 1.83% | proportion of cells in G2/M phase (U−2 OS cells [2]; DS−1 7.5 µM): 19.60 ± 1.40 | proportion of cells in S phase (U−2 OS cells [2]; DS−1 7.5 µM): 14.20 ± 0.40
